Calls of active or inactive are those of the source. The calls are words filed in the database; no cut-off is given here.
Experiments:
[1] = Inhibition of NF-kappaB-mediated gene transcription in HepG2 cells by luciferase reporter gene assay; format: cell-based; conditions: Homo sapiens
[2] = Inhibition of CRE-mediated gene transcription in HepG2 cells by luciferase reporter gene assay; format: cell-based; conditions: Homo sapiens
HepG2 [3] = assay: Cytotoxicity against HepG2 cells; format: functional; conditions: Homo sapiens
PANC-1 = assay: Cytotoxicity against PANC1 cells; format: functional; conditions: Homo sapiens
HepG2 [4] = assay: Antitumor activity against HepG2 cells xenografted nude mouse at 9 mg/kg, ip twice per day on every third day for four cycles; format: functional, organism-based; parameters: dose 9 mg/kg; conditions: Homo sapiens
HepG2 [5] = assay: Down regulation of cyclin D1 expression in HepG2 cells; format: functional, cell-based; conditions: Homo sapiens
Mus musculus [6] = assay: Reduction of body weight in HepG2 xenografted nude mouse at 9 mg/kg, ip after 10 days; format: ADME, organism-based; parameters: dose 9 mg/kg, route intraperitoneal; scale not given: the % may be the effect or the level left; conditions: in vivo, 240 h
Mus musculus [7] = assay: Reduction of body weight in HepG2 xenografted nude mouse at 9 mg/kg, ip after 9 days; format: ADME, organism-based; parameters: dose 9 mg/kg, route intraperitoneal; scale not given: the % may be the effect or the level left; conditions: in vivo, 216 h

Compound	IC50 [1]	IC50 [2]	GI50 (HepG2 [3])	GI50 (PANC-1)	Activity (HepG2 [4])	Activity (HepG2 [5])	Activity (Mus musculus [6])	Activity (Mus musculus [7])
COc1cc2c(cc1OC)-c1cc(OC)c(OC)cc1C1CN3CCC[C@H]3C=C21 (some centres not stated)	> 300 nM	> 300 nM	–	–	–	–	–	–
COc1ccc2c3c(c4cc(OC)c(O)cc4c2c1)CN1CCC[C@H]1[C@H]3O [TYLOPHORINIDINE]	10 nM	95 nM	11 nM	7 nM	Active	Dose-dependent effect	–	–
COc1ccc2c3c(c4cc(OC)c(OC)cc4c2c1)C[N+]1([O-])CCC[C@H]1[C@@H]3O (some centres not stated) [TYLOPHORIDICINE F]	367 nM	> 1000 nM	71 nM	63 nM	–	Dose-dependent effect	–	–
COc1ccc2c3c(c4cc(OC)c(O)cc4c2c1)CN1CCC[C@@H]1C3	11 nM	135 nM	13 nM	11 nM	inactive	Dose-dependent effect	–	–
COc1cc2c3c(c4cc(OC)c(OC)cc4c2cc1O)CN1CCC[C@H]1[C@H]3O	322 nM	> 300 nM	> 600 nM	–	–	–	–	–
COc1ccc2c3c(c4cc(OC)c(OC)cc4c2c1)CN1CCC[C@H]1[C@@H]3O [TYLOPHORININE]	12 nM	80 nM	20 nM	11 nM	–	Dose-dependent effect	–	–
COc1cc2c3c(c4ccc(O)cc4c2cc1OC)[C@H](O)[C@@H]1CCCN1C3 [TYLOPHORIDICINE E]	> 1000 nM	> 1000 nM	> 5000 nM	> 5000 nM	–	Dose-dependent effect	–	–
COc1cc2c3c(c4cc(OC)c(OC)cc4c2cc1OC)[C@@H](O)[C@@H]1CCCN1C3	315 nM	> 300 nM	–	–	–	–	–	–
COc1cc2c3c(c4cc(OC)c(OC)cc4c2cc1OC)[C@H](O)[C@@H]1CCCN1C3	–	1070 nM	–	–	–	–	15%	15%
COc1ccc2c3c(c4cc(OC)c(O)cc4c2c1)C[N+]1([O-])CCC[C@H]1[C@H]3O (some centres not stated) [TYLOPHORIDICINE C]	600 nM	> 1000 nM	98 nM	67 nM	–	Dose-dependent effect	–	–
